{"source": "ChEMBL document CHEMBL3739402", "about": "“Chromanones: selective and reversible monoamine oxidase B inhibitors with nanomolar potency” (Medchemcomm, 2015)"}
{"molecular_target": "T1, Amine oxidase [flavin-containing] B (Homo sapiens, UniProt P27338)", "T1 sequence (P27338 whole entry)": "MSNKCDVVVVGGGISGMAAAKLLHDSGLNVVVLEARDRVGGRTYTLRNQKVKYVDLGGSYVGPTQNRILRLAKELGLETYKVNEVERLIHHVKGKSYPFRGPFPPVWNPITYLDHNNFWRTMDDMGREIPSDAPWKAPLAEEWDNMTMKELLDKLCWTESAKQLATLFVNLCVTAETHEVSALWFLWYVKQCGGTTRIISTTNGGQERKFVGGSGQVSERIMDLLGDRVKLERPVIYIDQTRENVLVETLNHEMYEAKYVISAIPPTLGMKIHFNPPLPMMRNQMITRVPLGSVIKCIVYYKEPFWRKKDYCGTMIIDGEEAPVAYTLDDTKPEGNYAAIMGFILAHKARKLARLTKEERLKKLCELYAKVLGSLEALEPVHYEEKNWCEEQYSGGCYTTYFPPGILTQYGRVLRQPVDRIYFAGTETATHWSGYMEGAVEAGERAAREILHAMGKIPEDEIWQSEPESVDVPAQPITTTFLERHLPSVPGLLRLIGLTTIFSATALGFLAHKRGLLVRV", "assay": "Inhibition of human MAO-B preincubated at twice the IC50 for 15 mins", "conditions": "not given; call rule not given here", "units": {"inhibition (INH)": "%"}}
{"smiles": "O=C1CCOc2cc(OCc3ccc(F)cc3)ccc21", "inhibition (INH)": 44.5}
{"molecular_target": "T1, Amine oxidase [flavin-containing] B", "assay": "Inhibition of human MAO-B preincubated at twice the IC50 for 0 mins", "conditions": "not given", "units": {"inhibition (INH)": "%"}}
{"smiles": "O=C1CCOc2cc(OCc3ccc(F)cc3)ccc21", "inhibition (INH)": 42.4}
{"molecular_target": "T1, Amine oxidase [flavin-containing] B", "assay": "Time dependent inhibition of human MAO-B preincubated at twice the IC50 for 0 to 60 mins", "conditions": "not given"}
{"smiles": "O=C1CCOc2cc(OCc3ccc(F)cc3)ccc21", "TDI": "Not Active"}
{"molecular_target": "T2, Amine oxidase [flavin-containing] A (Homo sapiens, UniProt P21397)", "T2 sequence (P21397 whole entry)": "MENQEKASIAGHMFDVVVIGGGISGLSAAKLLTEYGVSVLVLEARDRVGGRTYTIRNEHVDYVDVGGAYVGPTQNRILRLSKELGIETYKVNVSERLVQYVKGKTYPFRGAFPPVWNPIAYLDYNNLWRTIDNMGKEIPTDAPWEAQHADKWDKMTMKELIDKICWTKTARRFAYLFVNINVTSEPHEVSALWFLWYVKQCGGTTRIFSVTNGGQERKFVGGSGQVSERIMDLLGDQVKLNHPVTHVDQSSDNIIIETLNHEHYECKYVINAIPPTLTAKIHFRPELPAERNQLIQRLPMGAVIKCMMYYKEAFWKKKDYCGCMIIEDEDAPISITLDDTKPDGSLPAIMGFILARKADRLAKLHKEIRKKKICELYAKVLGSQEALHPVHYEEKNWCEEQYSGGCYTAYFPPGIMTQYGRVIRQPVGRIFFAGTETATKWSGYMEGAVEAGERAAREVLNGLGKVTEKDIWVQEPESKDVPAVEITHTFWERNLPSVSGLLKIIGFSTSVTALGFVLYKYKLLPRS", "assay": "Inhibition of human MAO-A using p-tyramine as substrate assessed as production of H2O2 from p-tyramine at 100 uM incubated for 15 mins by Amplex Red MAO assay", "conditions": "0.25 h", "units": {"inhibition at 100 µM": "%"}}
{"smiles": "O=C1CCOc2cc(OCc3ccccc3)ccc21", "inhibition at 100 µM": 18}
{"smiles": "CC1(C)CC(=O)c2ccc(OCc3ccc(Cl)cc3)cc2O1", "inhibition at 100 µM": 28}
{"smiles": "O=C1CCOc2cc(OCc3ccc(Cl)cc3)ccc21", "inhibition at 100 µM": 37}
{"smiles": "Cc1ccc(COc2ccc3c(c2)OC(C)(C)CC3=O)cc1", "inhibition at 100 µM": 25}
{"smiles": "CC1(C)CC(=O)c2ccc(OCc3ccccc3)cc2O1", "inhibition at 100 µM": 25}
{"smiles": "O=C1CCOc2cc(OCc3cccc(Br)c3)ccc21", "inhibition at 100 µM": 28}
{"smiles": "Cc1ccc(COc2ccc3c(c2)OCCC3=O)cc1", "inhibition at 100 µM": 26}
{"smiles": "CC1(C)CC(=O)c2ccc(OCc3ccc(F)cc3)cc2O1", "inhibition at 100 µM": 25}
{"smiles": "O=C1CCOc2cc(OCc3ccccc3F)ccc21", "inhibition at 100 µM": 35}
{"smiles": "CC1(C)CC(=O)c2ccc(OCc3cccc(Cl)c3)cc2O1", "inhibition at 100 µM": 31}
{"smiles": "CC1(C)CC(=O)c2ccc(OCc3cccc(Br)c3)cc2O1", "inhibition at 100 µM": 16}
{"smiles": "O=C1CCOc2cc(OCCc3ccccc3)ccc21", "inhibition at 100 µM": 58}
{"smiles": "N#Cc1ccc(COc2ccc3c(c2)OCCC3=O)cc1", "inhibition at 100 µM": 27}
{"smiles": "CC1(C)CC(=O)c2ccc(OCc3cccc(F)c3)cc2O1", "inhibition at 100 µM": 18}
{"smiles": "Cc1cccc(COc2ccc3c(c2)OCCC3=O)c1", "inhibition at 100 µM": 19}
{"smiles": "O=C1CCOc2cc(OCc3cccc(F)c3)ccc21", "inhibition at 100 µM": 26}
{"smiles": "CC1(C)CC(=O)c2ccc(OCc3ccc(Br)cc3)cc2O1", "inhibition at 100 µM": 21}
{"smiles": "O=C1CCOc2cc(OCc3ccc(Br)cc3)ccc21", "inhibition at 100 µM": 19}
{"smiles": "Cc1cccc(COc2ccc3c(c2)OC(C)(C)CC3=O)c1", "inhibition at 100 µM": 18}
{"smiles": "O=C1CCOc2cc(OCc3cccc(Cl)c3)ccc21", "inhibition at 100 µM": 35}
{"smiles": "O=C1CCOc2cc(OCc3ccc(F)cc3)ccc21", "inhibition at 100 µM": 43}
{"smiles": "CC1(C)CC(=O)c2ccc(OCc3ccc(C#N)cc3)cc2O1", "inhibition at 100 µM": 23}
{"smiles": "CC1(C)CC(=O)c2ccc(OCc3ccccc3F)cc2O1", "inhibition at 100 µM": 28}
{"smiles": "O=C1CCOc2cc(OCCCc3ccccc3)ccc21", "inhibition at 100 µM": 65}
{"molecular_target": "T1, Amine oxidase [flavin-containing] B", "assay": "Competitive inhibition of human MAO-B using 50 to 500 uM p-tyramine as substrate at 4.3 to 17.2 nM by Lineweaver-Burk plot analysis", "conditions": "not given"}
{"smiles": "O=C1CCOc2cc(OCc3ccc(F)cc3)ccc21", "inhibition (INH)": "Active"}
{"molecular_target": "T1, Amine oxidase [flavin-containing] B", "assay": "Inhibition of human MAO-B preincubated at twice the IC50 for 30 mins", "conditions": "not given", "units": {"inhibition (INH)": "%"}}
{"smiles": "O=C1CCOc2cc(OCc3ccc(F)cc3)ccc21", "inhibition (INH)": 45.5}
{"molecular_target": "T1, Amine oxidase [flavin-containing] B", "assay": "Inhibition of human MAO-B using p-tyramine as substrate assessed as production of H2O2 from p-tyramine incubated for 15 mins by Amplex Red MAO assay", "conditions": "not given", "units": {"IC50": "nM"}}
{"smiles": "O=C1CCOc2cc(OCc3ccccc3)ccc21", "IC50": 57.4}
{"smiles": "Cc1ccc(COc2ccc3c(c2)OC(C)(C)CC3=O)cc1", "IC50": 113}
{"smiles": "CC1(C)CC(=O)c2ccc(OCc3ccccc3)cc2O1", "IC50": 97.5}
{"smiles": "O=C1CCOc2cc(OCc3cccc(Br)c3)ccc21", "IC50": 30.3}
{"smiles": "Cc1ccc(COc2ccc3c(c2)OCCC3=O)cc1", "IC50": 91.3}
{"smiles": "O=C1COc2cc(OCc3ccccc3)ccc21", "IC50": 15200}
{"smiles": "O=C1CCOc2cc(OCc3ccccc3F)ccc21", "IC50": 58.8}
{"smiles": "CC1(C)CC(=O)c2ccc(OCc3cccc(Cl)c3)cc2O1", "IC50": 55.4}
{"smiles": "CC1(C)CC(=O)c2ccc(OCc3cccc(Br)c3)cc2O1", "IC50": 52.2}
{"smiles": "O=C1COc2cc(OCCc3ccccc3)ccc21", "IC50": 2130}
{"smiles": "O=C1CCOc2cc(OCCc3ccccc3)ccc21", "IC50": 251}
{"smiles": "N#Cc1ccc(COc2ccc3c(c2)OCCC3=O)cc1", "IC50": 47.3}
{"smiles": "CC1(C)CC(=O)c2ccc(OCc3cccc(F)c3)cc2O1", "IC50": 65.5}
{"smiles": "O=C1CCOc2cc(OCc3cccc(F)c3)ccc21", "IC50": 52.6}
{"smiles": "CC1(C)CC(=O)c2ccc(OCc3ccc(Br)cc3)cc2O1", "IC50": 45.4}
{"smiles": "O=C1CCOc2cc(OCc3ccc(Br)cc3)ccc21", "IC50": 21.6}
{"smiles": "O=C1CCOc2cc(O)ccc21", "IC50": 78900}
{"smiles": "O=C1COc2cc(OCCCc3ccccc3)ccc21", "IC50": 20500}
{"smiles": "Cc1cccc(COc2ccc3c(c2)OC(C)(C)CC3=O)c1", "IC50": 98.3}
{"smiles": "O=C1CCOc2cc(OCc3cccc(Cl)c3)ccc21", "IC50": 35.3}
{"smiles": "CC1(C)CC(=O)c2ccc(OCc3ccc(C#N)cc3)cc2O1", "IC50": 69.5}
{"smiles": "CC1(C)CC(=O)c2ccc(OCc3ccccc3F)cc2O1", "IC50": 68.8}
{"smiles": "O=C1CCOc2cc(OCCCc3ccccc3)ccc21", "IC50": 21400}
{"molecular_target": "T2, Amine oxidase [flavin-containing] A", "assay": "Inhibition of human MAO-A using p-tyramine as substrate assessed as production of H2O2 from p-tyramine incubated for 15 mins by Amplex Red MAO assay", "conditions": "not given", "units": {"IC50": "nM"}}
{"smiles": "O=C1COc2cc(OCc3ccccc3)ccc21", "IC50": 38200}
{"smiles": "O=C1COc2cc(OCCc3ccccc3)ccc21", "IC50": 46400}
{"smiles": "O=C1CCOc2cc(O)ccc21", "IC50": 71400}
{"smiles": "O=C1COc2cc(OCCCc3ccccc3)ccc21", "IC50": 39300}
{"molecular_target": "T1, Amine oxidase [flavin-containing] B", "assay": "Reversible inhibition of human MAO-B preincubated at twice the IC50 for 0 to 60 mins", "conditions": "not given"}
{"smiles": "O=C1CCOc2cc(OCc3ccc(F)cc3)ccc21", "inhibition (INH)": "Active"}
{"molecular_target": "T1, Amine oxidase [flavin-containing] B", "assay": "Inhibition of human MAO-B preincubated at twice the IC50 for 60 mins", "conditions": "not given", "units": {"inhibition (INH)": "%"}}
{"smiles": "O=C1CCOc2cc(OCc3ccc(F)cc3)ccc21", "inhibition (INH)": 49.6}
{"tested_on": "SH-SY5Y", "assay": "Neurotoxicity against human SH-SY5Y cells assessed as cell viability at 3 to 50 uM after 48 hrs by MTT assay", "format": "toxicity, cell-based", "conditions": "not given"}
{"smiles": "CC1(C)CC(=O)c2ccc(OCc3ccc(F)cc3)cc2O1", "Activity": "Non-toxic"}
{"smiles": "O=C1CCOc2cc(OCc3ccc(F)cc3)ccc21", "Activity": "Non-toxic"}
{"species_on_record": "Homo sapiens", "assay": "Selectivity index, ratio of IC50 for human MAO-A to IC50 for human MA)-B by Amplex Red MAO assay", "conditions": "not given"}
{"smiles": "O=C1COc2cc(OCc3ccccc3)ccc21", "Ratio IC50": 2.5}
{"smiles": "O=C1COc2cc(OCCc3ccccc3)ccc21", "Ratio IC50": 21.8}
{"smiles": "O=C1CCOc2cc(OCc3cccc(F)c3)ccc21", "Ratio IC50": "> 1900"}
{"smiles": "O=C1CCOc2cc(O)ccc21", "Ratio IC50": 0.9}
{"smiles": "O=C1COc2cc(OCCCc3ccccc3)ccc21", "Ratio IC50": 1.9}
